Test [1] deals with human RORγt LBD (Homo sapiens (Human), UniProt P51449). Kind of test: RORγt Reporter Assay. The test is classed as cell-based. The note with it: for IC50 / RORγt reporter Assay, % inhibition @ 6 μM: HEK293T cells; for inhibition at 6 µM: HEK-293T, read-out: RORγt reporter Assay, % inhibition @ 6 μM, HEK293T cells, 6 μM. The source says:
A reporter assay was used to test functional activity of RORγt modulatory compounds on transcriptional activation driven by the RORγt LBD. Cells used in the assay were co-transfected with two constructs. The first construct, pBIND-RORγt LBD, contained the wild type human RORγt LBD fused to the DNA binding domain of the GAL4 protein. The second construct, pGL4.31 (Promega Cat no. C935A), contained multiple GAL4 responsive DNA elements upstream of firefly luciferase. […] The mutant construct was called pBIND-RORγt-AF2.
The pBIND vector contains the GAL4 DNA Binding Domain (GAL4 DBD) and the renilla luciferase gene under control of the SV40 promoter. Renilla luciferase expression serves as a control for transfection efficiency and cell viability.
The reporter assay was performed by transiently transfecting HEK293T cells with 5 μg of pBIND-RORγt LBD or pBIND-RORγt LBD-AF2 and 5 μg pGL4.31 (Promega Cat no. C935A) using Fugene 6 (Invitrogen Cat no. E2691) at a 1:6 ratio of DNA:Fugene 6 in a T-75 flask in which cells were at least 80% confluent. Twenty four hours after bulk transfection, cells were plated into 96-well plates at 50,000 cells/well in phenol-red free DMEM containing 5% Lipid Reduced FCS and Pen/Strep. Six hours after plating, cells were treated with compounds for 24 hours. Media was removed and cells were lysed with 50 μL 1× Glo Lysis Buffer (Promega). Dual Glo Luciferase Reagent (50 μL/well) was then added and firefly luciferase luminescence was read on an Envision after a ten minute incubation. Finally, Stop and Glo reagent (50 μL/well) was added and renilla luciferase luminescence was read on an Envision after a ten minute incubation. To calculate the effect of compounds on RORγt activity, the ratio of firefly to renilla luciferase was determined and plotted against compound concentration. Agonist compounds increase RORγt-driven luciferase expression, and antagonist or inverse agonist compounds decrease luciferase expression.
(In general: Reporter assays use an easily measured gene product as a stand-in for the process of interest.)

Test [2] deals with IL-17 production by CD4 T cells. The experiment in a line: Human Th17 Assay. The test is classed as cell-based. To be noted: Homo sapiens, 72 h, 3 days. From the text: The human Th17 assay tests the effect of RORγt modulatory compounds on IL-17 production by CD4 T cells under conditions which favor Th17 differentiation. Total CD4^+ T cells were isolated from the peripheral blood mononuclear cells (PBMC) of healthy donors using a CD4^+ T cell isolation kit II, following the manufacturer's instructions (Miltenyi Biotec). Cells were resuspended in a medium of RPMI-1640 supplemented with 10% fetal bovine serum, penicillin, streptomycin, glutamate, and β-mercaptoethanol and were added to 96-well plates at 1.5×10^5 per 100 μL per well. 50 μL of compound at titrated concentrations in DMSO were added into each well at final DMSO concentration at 0.2%. Cells were incubated for 1 hour, then 50 μL of Th17 cell differentiation medium was added to each well. The final concentrations of antibodies and cytokines (R&D Systems) in differentiation medium were: 3×10^6/mL anti-CD3/CD28 beads (prepared using human T cell activation/expansion kit, Miltenyi Biotec), 10 μg/mL anti-IL4, 10 μg/mL anti-IFNγ, 10 ng/mL IL1β, 10 ng/mL IL23, 50 ng/mL IL6, 3 ng/mL TGFβ and 20 U/mL IL2. Cells were cultured at 37° C. and 5% CO2 for 3 days. Supernatants were collected and the accumulated IL-17 in culture was measured by using MULTI-SPOT® Cytokine Plate following manufacture's instruction (Meso Scale Discovery). The plate was read using Sector Imager 6000, and IL-17 concentration was extrapolated from the standard curve. The IC50s were determined by GraphPad.

Molecules are shown by their SMILES. Where a name gives a salt, the structure may show the parent alone.

Chain of human RORγt LBD (P51449 258-518): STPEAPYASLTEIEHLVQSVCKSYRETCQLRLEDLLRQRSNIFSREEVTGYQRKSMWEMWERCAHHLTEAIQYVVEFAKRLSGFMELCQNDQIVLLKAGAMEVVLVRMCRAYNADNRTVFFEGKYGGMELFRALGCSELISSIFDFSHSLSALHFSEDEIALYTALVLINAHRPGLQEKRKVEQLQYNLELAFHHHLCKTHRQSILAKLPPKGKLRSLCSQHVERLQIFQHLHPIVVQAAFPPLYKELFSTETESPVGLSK

One may read the IC50 as the point on the concentration scale where inhibition reaches its midpoint. As a reminder, the inhibition is the relative decrease from the control value, in per cent. Turning to `C#CC(O)(c1ccc2nc(OC)c(Cc3ccc(C(F)(F)F)cc3)c(Cl)c2c1)C1CN(C(C)=O)C1` (single isomer, unassigned) [Example 7b, 1-(3-(1-(4-chloro-2-methoxy-3-(4-(trifluoromethyl)benzyl)quinolin-6-yl)-1-hydroxyprop-2-yn-1-yl)azetidin-1-yl)ethanone], in test [1], the half-maximal inhibitory concentration (IC50) turned out to be 360 nM and the inhibition at 6 µM turned out to be 97%.

For the molecule `C#CC(O)(c1ccc2nc(OC)c(Cc3ccc(C(F)(F)F)cc3)c(Cl)c2c1)C1CN(C(C)=O)C1` (single isomer, unassigned) [Example 7c, 1-(3-(1-(4-chloro-2-methoxy-3-(4-(trifluoromethyl)benzyl)quinolin-6-yl)-1-hydroxyprop-2-yn-1-yl)azetidin-1-yl)ethanone], in test [1], the 50% inhibitory concentration (IC50) was 98 nM and the “RORγt reporter Assay, % inhibition @ 6 μM” value was determined as 94%. It took 320 nM to reach half-maximal inhibition in test [2] (CD4+ T) (IC50).

As to `COc1nc2ccc(C(C)(O)c3cncn3C)cc2c(Cl)c1Cc1ccc(C(F)(F)F)cc1` (single isomer, unassigned) [Example 9b, 1-(4-Chloro-2-methoxy-3-(4-(trifluoromethyl)benzyl)quinolin-6-yl)-1-(1-methyl-1H-imidazol-5-yl)ethanol], in test [1], the half-maximal inhibitory concentration (IC50) turned out to be 1300 nM and the inhibition at 6 µM worked out at 89%.

On to `COc1nc2ccc(C(C)(O)c3cncn3C)cc2c(Cl)c1Cc1ccc(C(F)(F)F)cc1` (single isomer, unassigned) [Example 9c, 1-(4-Chloro-2-methoxy-3-(4-(trifluoromethyl)benzyl)quinolin-6-yl)-1-(1-methyl-1H-imidazol-5-yl)ethanol], for which, in test [1], half-maximal inhibition (IC50) was put at 180 nM and the “RORγt reporter Assay, % inhibition @ 6 μM” value is 98%. In test [2] (CD4+ T), this molecule returned an IC50 of 280 nM.

In the case of `COc1nc2ccc(C(C)(O)c3oc(C)nc3C)cc2c(Cl)c1Cc1ccc(C(F)(F)F)cc1` (single isomer, unassigned) [Example 10a, 1-(4-Chloro-2-methoxy-3-(4-(trifluoromethyl)benzyl)quinolin-6-yl)-1-(2,4-dimethyloxazol-5-yl)ethanol], in test [1], the midpoint of inhibition, the IC50, lay at 250 nM and the inhibition at 6 µM stood at 101%.

Regarding `COc1nc2ccc(C(C)(O)c3oc(C)nc3C)cc2c(Cl)c1Cc1ccc(C(F)(F)F)cc1` (single isomer, unassigned) [Example 10b, 1-(4-Chloro-2-methoxy-3-(4-(trifluoromethyl)benzyl)quinolin-6-yl)-1-(2,4-dimethyloxazol-5-yl)ethanol], the 50% inhibitory concentration (IC50) in test [1] was 260 nM; in test [2] (CD4+ T), 640 nM. For the same molecule, the “RORγt reporter Assay, % inhibition @ 6 μM” value in test [1] is 96%.

In the case of `CCCCC(O)(c1ccc2nc(Cl)c(-c3ccccc3)c(Cl)c2c1)c1cc(C)no1` (stereo not shown) [Example 1, 1-(2,4-Dichloro-3-phenylquinolin-6-yl)-1-(3-methylisoxazol-5-yl)pentan-1-ol.TFA], the 50% inhibitory concentration (IC50) in test [2] is around 3000 nM.

`CCC(O)(c1ccc2nc(Cl)c(-c3ccccc3)c(Cl)c2c1)c1cc(C)no1` (stereo not shown) [Example 2, 1-(2,4-Dichloro-3-phenylquinolin-6-yl)-1-(3-methylisoxazol-5-yl)propan-1-ol.TFA] came in with an IC50 in test [2] of around 6000 nM.

Take `Cn1cncc1C(O)(c1ccc2nc(Cl)c(-c3ccccc3)c(Cl)c2c1)C1CC1` (stereo not shown) [Example 3, Cyclopropyl(2,4-dichloro-3-phenylquinolin-6-yl)(1-methyl-1H-imidazol-5-yl)methanol]: in test [1], the half-maximal inhibitory concentration (IC50) was above 6000 nM and the inhibition at 6 µM was 56%.

Regarding `CCCCC(O)(c1ccc2nc(Cl)c(-c3ccccc3)c(Cl)c2c1)c1cncn1C` (stereo not shown) [Example 4, 1-(2,4-Dichloro-3-phenylquinolin-6-yl)-1-(1-methyl-1H-imidazol-5-yl)pentan-1-ol.TFA], in test [1], the IC50 was 1500 nM and the inhibition at 6 µM was 114%.

Consider `CC(C)C(O)(c1ccc2nc(Cl)c(-c3ccccc3)c(Cl)c2c1)c1cncn1C` (stereo not shown) [Example 5, 1-(2,4-Dichloro-3-phenylquinolin-6-yl)-2-methyl-1-(1-methyl-1H-imidazol-5-yl)propan-1-ol], for which, in test [1], the 50% inhibitory concentration (IC50) amounted to 1300 nM and the inhibition at 6 µM is 118%.

Turning to `CCC(O)(c1ccc2nc(OC)c(Cc3ccc(S(C)(=O)=O)cc3)c(Cl)c2c1)c1cncn1C` (stereo not shown) [Example 6, 1-(4-Chloro-2-methoxy-3-(4-(methylsulfonyl)benzyl)quinolin-6-yl)-1-(1-methyl-1H-imidazol-5-yl)propan-1-ol], in test [1], inhibition was half-maximal at 1700 nM (IC50) and the inhibition at 6 µM is 76%.

As for `C#CC(O)(c1ccc2nc(OC)c(Cc3ccc(C(F)(F)F)cc3)c(Cl)c2c1)C1CN(C(C)=O)C1` (stereo not shown) [Example 7a, 1-(3-(1-(4-Chloro-2-methoxy-3-(4-(trifluoromethyl)benzyl)quinolin-6-yl)-1-hydroxyprop-2-yn-1-yl)azetidin-1-yl)ethanone], in test [1], inhibition was half-maximal at 230 nM (IC50) and the inhibition at 6 µM turned out to be 95%.

With `C#CC(O)(c1ccc2nc(OC)c(Cc3ccc(C(F)(F)F)cc3)c(Cl)c2c1)C1CN(C(=O)OC(C)(C)C)C1` (stereo not shown) [Example 8, tert-Butyl-3-(1-(4-chloro-2-methoxy-3-(4-(trifluoromethyl)benzyl)quinolin-6-yl)-1-hydroxyprop-2-yn-1-yl)azetidine-1-carboxylate], in test [1], the IC50 is 4000 nM and the inhibition at 6 µM worked out at 71%.

With `COc1nc2ccc(C(C)(O)c3cncn3C)cc2c(Cl)c1Cc1ccc(C(F)(F)F)cc1` (stereo not shown) [Example 9a, 1-(4-Chloro-2-methoxy-3-(4-(trifluoromethyl)benzyl)quinolin-6-yl)-1-(1-methyl-1H-imidazol-5-yl)ethanol], in test [1], the half-maximal inhibitory concentration (IC50) came out at 280 nM and the inhibition at 6 µM amounted to 98%.

Regarding `COc1nc2ccc(C(C)(O)c3cnnn3C)cc2c(Cl)c1Cc1ccc(C(F)(F)F)cc1` (stereo not shown) [Example 11a, 1-(4-Chloro-2-methoxy-3-(4-(trifluoromethyl)benzyl)quinolin-6-yl)-1-(1-methyl-1H-1,2,3-triazol-5-yl)ethanol], in test [1], the IC50 amounted to 110 nM and the inhibition at 6 µM stood at 102%.

With `COc1nc2ccc(C(C)(O)c3cnc(C)n3C)cc2c(Cl)c1Cc1ccc(C(F)(F)F)cc1` (stereo not shown) [Example 12a, 1-(4-Chloro-2-methoxy-3-(4-(trifluoromethyl)benzyl)quinolin-6-yl)-1-(1,2-dimethyl-1H-imidazol-5-yl)ethanol], in test [1], the half-maximal inhibitory concentration (IC50) was determined as 370 nM and the inhibition at 6 µM was determined as 99%.

Turning to `COc1nc2ccc(C(C)(O)c3ccc(C)nc3C)cc2c(Cl)c1Cc1ccc(C(F)(F)F)cc1` (stereo not shown) [Example 13a, 1-(4-Chloro-2-methoxy-3-(4-(trifluoromethyl)benzyl)quinolin-6-yl)-1-(2,6-dimethylpyridin-3-yl)ethanol], in test [1], the half-maximal inhibitory concentration (IC50) turned out to be 52 nM and the inhibition at 6 µM amounted to 103%.

For the molecule `C#CC(O)(c1ccc2nc(OC)c(Cc3ccc(C(F)(F)F)cc3)c(Cl)c2c1)c1cnc(C)n1C` (stereo not shown) [Example 14a, 1-(4-Chloro-2-methoxy-3-(4-(trifluoromethyl)benzyl)quinolin-6-yl)-1-(1,2-dimethyl-1H-imidazol-5-yl)prop-2-yn-1-ol], in test [1], the concentration for half-maximal inhibition (IC50) amounted to 210 nM and the inhibition at 6 µM was found to be 81%.

As to `Cc1nc(C)c(C(O)(c2ccc3nc(Cl)c(-c4ccccc4)c(Cl)c3c2)C(C)C)s1` (stereo not shown) [Example 15, 1-(2,4-Dichloro-3-phenylquinolin-6-yl)-1-(2,4-dimethylthiazol-5-yl)-2-methylpropan-1-ol], in test [1], the concentration for half-maximal inhibition (IC50) was around 500 nM and the inhibition at 6 µM worked out at 99%.

In the case of `CCC(O)(c1ccc2nc(OC)c(Cc3ccc(C(F)(F)F)cc3)c(Cl)c2c1)C1CN(C(=O)OC(C)(C)C)C1` (stereo not shown) [Example 17, tert-Butyl-3-(1-(4-chloro-2-methoxy-3-(4-(trifluoromethyl)benzyl)quinolin-6-yl)-1-hydroxypropyl)azetidine-1-carboxylate], in test [1], the 50% inhibitory concentration (IC50) came to 500 nM and the inhibition at 6 µM worked out at 98%.

The record behind these values is patent US9346782B2, “Alkyl linked quinolinyl modulators of RORγt” (Janssen Pharmaceutica NV, priority 2013, dated 2016).
